We go through three compounds from patent publication US6555333B1, “Broad spectrum fastidious organism culture medium” (priority 2002, dated 2003).

Test [1] relates to Haemophilus influenzae. The experiment in a line: MIC testing (Etest strip) on the culture medium of Example 1. In kind it is cell-based. The text has this: (§1) The culture medium of the invention was used in both Minimum Inhibitory Concentration (MIC) testing and Bauer-Kirby Disk Susceptibility testing for the pathogenic bacteria noted in the table below with the antimicrobial agents noted therein using the protocol and standards set forth in NCCLS Bulletin No. M2-A7 and in the Supplemental Tables appendix thereto, the disclosures of which are incorporated herein by reference.
(§2) The general procedure was as follows: pathogenic bacteria specimens were obtained from American Type Culture Collection control lots and 10 isolates were obtained from all species except Campylobacter, from which 6 isolates were obtained. Petri dishes 150 mm in diameter were autoclaved and filled with the culture medium of Example 1 and brought to room temperature. Each plate was then swab-inoculated with a suspension of one of the pathogenic bacteria equivalent to a 0.5 McFarland Standard, and then the antimicrobial-impregnated disk or antimicrobial-impregnated strip for IC measurement (Etest strip from Biodisk AB, of Solna, Sweden) were pressed into the surface of the culture medium. The plates were incubated at 35° C. for 24 hours in atmospheres containing 5-7% CO2 and the disk diffusion zones were measured, with the exception that plates inoculated with the Campylobacter species were placed into microaerophilic chambers from Mitsubishi Gas & Chemical Co. of Japan and incubated at 35° C. for 48 hours. The tests were conducted in duplicate for each pathogenic bacteria/antimicrobial agent combination on three batches of the culture medium of Example 1, for a total of six tests for each combination. Geometric mean MIC values and arithmetic mean values of zone diameters from the Disk Diffusion tests were calculated from the data, and are reported in the table below.

Test [2] deals with Haemophilus influenzae. The experiment in a line: Bauer-Kirby Disk Susceptibility testing on the culture medium of Example 1. The format is cell-based.
Source text: as §1, §2

For test [3], the system named is Haemophilus influenzae. The settings on record: different known culture media; cited from earlier work.
Test [4] relates to Campylobacter species. Put plainly: MIC testing (Etest strip) on the culture medium of Example 1. In kind it is cell-based. The conditions noted are these: microaerophilic, 48 hours.
Source text: as §1, §2

The subject of test [5] is Neisseria gonorrhoeae. The test is described as above. In kind it is cell-based.
Source text: as §1, §2

In test [6] the test system is Campylobacter species. The experiment in a line: Bauer-Kirby Disk Susceptibility testing on the culture medium of Example 1. In kind it is cell-based. The settings on record: microaerophilic, 48 hours.
Source text: as §1, §2

Test [7] has as its system Neisseria gonorrhoeae. The description is as above. The format is cell-based.
Source text: as §1, §2

The subject of test [8] is Neisseria gonorrhoeae. The conditions noted are these: different known culture media; cited from earlier work.
Test [9] deals with S. pneumoniae. Put plainly: MIC testing (Etest strip) on the culture medium of Example 1. The format is cell-based. The conditions noted are these: for Observed MIC Breakpoints R: R = resistant; for Observed MIC Breakpoints S: S = susceptible.
Source text: as §1, §2

In test [10] the test system is Viridans streptococci. The test is described as above. The settings on record: R = resistant. In kind it is cell-based.
Source text: as §1, §2

For test [11], the system named is S. pneumoniae. The experiment in a line: Bauer-Kirby Disk Susceptibility testing on the culture medium of Example 1. The format is cell-based. The settings on record: for Observed Disk Diff. Breakpoints R: R = resistant; for Observed Disk Diff. Breakpoints S: S = susceptible.
Source text: as §1, §2

Test [12] relates to Viridans streptococci. Described as above. The format is cell-based.
Source text: as §1, §2

The test system of test [13] is S. pneumoniae. The settings on record: meningitis, different known culture media; cited from earlier work.
Test [14] has as its system Viridans streptococci. The settings on record: different known culture media; cited from earlier work.

Take `O=C(N[C@H](CO)[C@H](O)c1ccc([N+](=O)[O-])cc1)C(Cl)Cl` [Chloramphenicol]: the “Observed MIC Breakpoints I” value in the test on Haemophilus influenzae [1] (I = intermediate) worked out at 4 µg/mL. Also, the “Observed MIC Breakpoints R” value in the test on Haemophilus influenzae [1] (R = resistant) is listed as “≧8 μg/mL”. The “Observed MIC Breakpoints S” value in the test with Haemophilus influenzae [1] (S = susceptible) is listed as “≦2 μg/mL”. For the same compound, in the test with Haemophilus influenzae [2] (I = intermediate), the “Observed Disk Diff. Breakpoints I” value is 20-24 mm. In the test with Haemophilus influenzae [2] (R = resistant), the “Observed Disk Diff. Breakpoints R” value is “≦19 mm”. Further, in the test on Haemophilus influenzae [2] (S = susceptible), the “Observed Disk Diff. Breakpoints S” value is “≧25 mm”. For the same compound, the “Reported MIC Breakpoints” value with Haemophilus influenzae [3] was “(2-8) μg/mL”.

Turning to `O=C(O)c1cn(C2CC2)c2cc(N3CCNCC3)c(F)cc2c1=O` [Ciprofloxacin], the “Observed MIC Breakpoints I” value fell in the range of 1 to 2 µg/mL with Campylobacter species [4] (I = intermediate) and 0.12 to 0.5 µg/mL with Neisseria gonorrhoeae [5] (I = intermediate). The entries for the “Observed MIC Breakpoints R” value in the test on Campylobacter species [4] (R = resistant) and in the test on Neisseria gonorrhoeae [5] (R = resistant) were “≧4 μg/mL” and “≧1 μg/mL”, respectively. The “Observed MIC Breakpoints S” value was “≦0.5 μg/mL” in the test with Campylobacter species [4] (S = susceptible) and “≦0.06 μg/mL” with Neisseria gonorrhoeae [5] (S = susceptible). The entries for the “Observed Disk Diff. Breakpoints I” value in the test with Campylobacter species [6] (I = intermediate) and with Neisseria gonorrhoeae [7] (I = intermediate) were 19-26 mm and 25-34 mm, respectively. Moreover, the “Observed Disk Diff. Breakpoints R” value was “≦18 mm” with Campylobacter species [6] (R = resistant) and “≦24 mm” in the test with Neisseria gonorrhoeae [7] (R = resistant). For the same compound, the “Observed Disk Diff. Breakpoints S” value in the test with Campylobacter species [6] (S = susceptible) is on record as “≧27 mm”; in the test with Neisseria gonorrhoeae [7] (S = susceptible) it was “≧35 mm”. Further, the “Reported MIC Breakpoints” value in the test with Neisseria gonorrhoeae [8] was “(0.06-1) μg/mL”.

Consider `CO/N=C(\C(=O)N[C@@H]1C(=O)N2C(C(=O)O)=C(COC(C)=O)CS[C@H]12)c1csc(N)n1` [Cefotaxime], for which the “Observed MIC Breakpoints R” value was “≧8 μg/mL” in the test with S. pneumoniae [9] (Lower Respiratory Tract), “≧2 μg/mL” in the test with S. pneumoniae [9] (meningitis) and “≧8 μg/mL” with Viridans streptococci [10]. Also, the results for the “Observed MIC Breakpoints S” value in the test with S. pneumoniae [9] (Lower Respiratory Tract) and in the test with S. pneumoniae [9] (meningitis) were “≦4 μg/mL” and “≦0.5 μg/mL”, respectively. Also, in the test on S. pneumoniae [9] (meningitis, I = intermediate), the “Observed MIC Breakpoints I” value came out at 1 µg/mL. The “Observed Disk Diff. Breakpoints R” value in the test on S. pneumoniae [11] (Lower Respiratory Tract) was “≦23 mm”; in the test with S. pneumoniae [11] (meningitis), “≦25 mm”; with Viridans streptococci [12] (R = resistant), “≦23 mm”. The “Observed Disk Diff. Breakpoints S” value is “≧24 mm” in the test on S. pneumoniae [11] (Lower Respiratory Tract), “≧28 mm” in the test with S. pneumoniae [11] (meningitis) and “≧24 mm” in the test on Viridans streptococci [12] (S = susceptible). Also, in the test with S. pneumoniae [11] (meningitis, I = intermediate), the “Observed Disk Diff. Breakpoints I” value is on record as 26-27 mm. In addition, the “Reported MIC Breakpoints” value in the test with S. pneumoniae [13] and in the test on Viridans streptococci [14] was “(0.5-2) μg/mL” each time.
